{"source": "patent EP1101496A1", "about": "“THERAPEUTIC AGENTS FOR ALLERGIC DISEASES” (FUJI YAKUHIN KOGYO KABUSHIKI KAISHA, priority 1998, dated 2000)", "key": {"[1]": {"experiment": "Mouse body weight gain (side-effect index)", "assay_type": "in vivo, mice", "conditions": "average ± standard deviation; once a day Days 0-5; Compound No. 8 or 10 60 mg/kg s.c., prednisolone 10 mg/kg i.p.", "description": "Next the mice were measured for their body weight."}, "[2]": {"system": "Experimental Bronchial Asthma Model", "experiment": "Experimental bronchial asthma model (ovalbumin-sensitized, airway resistance and asthmatic death)", "assay_type": "in vivo, Guinea pigs", "protocol": "Guinea pigs (female, Std:Hartley, 3 weeks old, 200 to 250 g) were individually housed in a plastic chamber (width, 200 mm; depth, 300 mm; height, 167 mm). Aqueous ovalbumin (10 mg/mL) was administered to the guinea pigs once a day for sensitization by 10 min. inhalation with a nebulizer (5B, Nippon Shoji K.K.: flow rate, 6 L/min.) at a dose of 10 mg/mL during 8 cosecutive days. On Day 7 after the final sensitization, the guinea pigs were housed in a plastic chamber and inhaled using a nebulizer with a solution of ovalbumin (10 mg/mL) in physiological saline for 1 min. for elicitation (Matsumoto, T., et al., The Journal of Pharmacology and Experimental Therapeutics, 269: 1236-1244, 1994). The number of animals employed in the experiment was set to the extent there are at least 6 as individuals escaping asthmatic death. A solution of a test metalloproteinase inhibitor (Compound No. 8, 15 mg/kg) in water for injection was administered subcutaneously twice, i.e., 24 hours and 2 hours prior to elicitation. Similarly, the solvent alone was also administered to a negative control group. A suspension of prednisolone (10 mg/kg) in 0.5% aqueous methyl cellulose was administered orally twice, i.e., 24 hours and 2 hours prior to elicitation. Similarly, the solvent alone was also administered to another control group.\nThe evaluation for efficacies was conducted in terms of airway resistance. For this purpose, an apparatus dedicated to the measurement of airway resistance (K.K. Medical Agent) was employed. Measurement includes setting a guinea pig in a test chamber under a not-anesthetized condition, applying sinusoidal pressure waves of 30 Hz components to a part below the neck of the animal from the back side of the chamber, measuring respiratory waves of 30 Hz components leaking through the mouth (volume of 30 Hz air flow passing through the respiratory tract) in front of the neck, and calculating airway resistance mechanically. Measurement was carried out immediately prior to the first drug treatment (24 hours before elicitation), just prior to elicitation, 10 minutes, 1, 2, 4, 6, and 8 hours post-elicitation.\nIt was visually observed by a person carrying out said test in terms of the appearance of cyanosis or suffocative death (asthmatic death) due to respiratory obstruction.\nGuinea pigs were sensitized with ovalbumin and asthma was induced on Day 7 after final sensitization in the same manner as in Example 18. The number of animals employed in the experiment was set to the extent there are at least 6 as individuals escaping asthmatic death (8 to 11 animals/group). In the same manner as in Example 18, the animals were measured for airway resistance mechanically and each percent change (%) in airway resistance was calculated (each value just prior to elicitation was set as 100%). Each percent amelioration in airway resistance was calculated from the percent changes in airway resistance according to the following formula: Amelioration in Airway Resistance (%) = 1 -[((Percent Change in Airway Resistance after Drug-Administration)-(Value just prior to Challenge (100)))/((Percent Change in Airway Resistance after Solvent -Administration)-(Value just prior to Challenge (100)))]× 100 [formula]\nA solution of a test metalloproteinase inhibitor (Compound No. 22: 15 mg/kg or 30 mg/kg) in water for injection or the solvent alone as a negative control was administered to each animal subcutaneously twice, i.e., 24 hours and 2 hours prior to elicitation."}, "[3]": {"system": "Type IV Allergic Dermatitis", "experiment": "Type IV allergic dermatitis (oxazolone-induced auricle edema)", "assay_type": "in vivo, Mice (male, Balb/c)", "description": "Mice (male, Balb/c, 6 weeks old, 20 to 25 g) were sensitized by painting a 3% solution of oxazolone (100 µL) abdominally. Six days after sensitization, a 0.5% solution of oxazolone in acetone was painted on both sides of a right ear at a dose of 10 µL to raise auricle edema. An untreated group was painted with the solvent (acetone) alone onto both sides of a left ear of the same mouse at 10 µL. At 24 hours after edema-induction, each mouse was sacrificed with ether and an equivalent each of right and left auricles was stamped out with a puncher (diameter: 6 mm). Both left and right auricle sections were measure for their weight and each percent edema was calculated (Kazuo Ouchi (Ed.), \"Seibutsu Yakukagaku Jikken Koza, Ensho To Allergy (Inflammation and Allergy) I-1\", 1993, Hirokawa Publishing Co., Japan) Percent Edema (%) =((Right Auricular Segment Weight - Left Auricular Segment Weight))/(Left Auricular Segment Weight)× 100 [formula]\nA solution of a test metalloproteinase inhibitor (Compound No. 8, 50 mg/mL) in ethanol was painted onto both sides of a right auricle at 10 µL per side twice, i.e., 0.5 hr prior to edema-induction and 6 hours after edema-induction. The solvent (ethanol) alone was painted on a left auricle at the same dose ([…]). […]"}, "Allergic Rhinitis": {"system": "Allergic Rhinitis", "experiment": "Allergic rhinitis model (nasal airway resistance)", "assay_type": "in vivo, Guinea pigs", "conditions": "15 mg/kg s.c. one hour prior to rhinitis-induction; 20 minutes after antigen-challenge", "description": "Guinea pigs (male, Std:Hartley, 3 weeks old) were housed and fed in a aluminum cage at a rate of up to 5 animals per cage. After acclimatization for 1 week, the guinea pigs were administered intravenously with an anti-ovalbumin antibody (Nihon Bioresearch Inc., Hajima Institute; antibody titer by a 3-hour homologous passive cutaneous anaphylaxis reaction, 1 : 8192) prepared according to the Orange & Moore method (Orange, R. P. and Moore, E. G., The Journal of Immunology 116: p.392-397, 1976) into their auricle vein at a dose of 0.3 mL/animal for passive sensitization. Twenty four to twenty six hours after sensitization under conditions of fast and free access to drinking water, the sensitized guinea pigs were anesthetized with urethane (1.2 g/kg, intraperitoneal administration), fixed in a supine position, and mediad excised cervically to expose tracheas. […] Variations of the ventilatory overflow were quantitatively recorded on a recticoder (RECTI-HORIZ-8K, Nippon Denki Sanei K.K.) for 20 minutes after antigen-challenge.\nWave height (cm) was measured on recorded papers and a nasal airway resistance value was calculated according to the following formula: Percent Increase (%) in Nasal Airway Resistance =((Observed Value)-(Value prior to Administration))/((Complete Obstruction)-(Value prior to Administration))× 100 [formula] […]"}, "[4]": {"conditions": "suffocative death due to cyanosis just after elicitation, Compound No. 8 15 mg/kg s.c., prednisolone 10 mg/kg orally, 24 and 2 hours prior to elicitation"}}, "data": [{"smiles": "CNC(=O)[C@H](Cc1ccc(NC(=N)N)cc1)NC(=O)[C@H](CC(C)C)C(CCCc1ccccc1)C(=O)NO", "note": "(single isomer, unassigned) [Compound No. 8, N-[4-(N-hydroxyamino)-2(R)-isobutyl-3(R or S)-(3-phenyltrimethylene)succinyl]-L-4'-guanidophenylalanine-N-methylamide 1 acetate]", "values": [{"measurement": "Body Weight Gain, Day 5", "setting": "[1]", "result": "0.57± 0.61"}, {"measurement": "Body Weight Gain, Day 7", "setting": "[1]", "result": "0.77± 0.55"}, {"measurement": "Body Weight Gain, Day 10", "setting": "[1]", "result": "1.20± 0.26"}, {"measurement": "airway resistance (FIG. 11)", "setting": "[2]; 15 mg/kg s.c. 24 hours and 2 hours prior to elicitation, IAR 1 hour and LAR 6 hours post-elicitation", "result": "significant reduction of the increased airway resistance"}, {"measurement": "% Mortality", "setting": "[2]; [4]", "result": 0.0, "unit": "%"}, {"measurement": "(Dead Animals)/(Tested Animals)", "setting": "[2]; [4]", "result": "0/10"}, {"measurement": "therapeutic potency on the development of auricle edemas (FIG. 12)", "setting": "[3]; 50 mg/mL in ethanol, 10 µL per side painted on right auricle 0.5 hr prior to and 6 hours after edema-induction, 24 hours after induction", "result": "amelioration of auricle edemas"}, {"measurement": "effect of the compound alone on auricles (unsensitized group, FIG. 12)", "setting": "[3]; unsensitized mice, 50 mg/mL in ethanol painted on auricle", "result": "almost free of swelling and/or thinning"}, {"measurement": "increase in nasal airway resistance due to antigen challenge (FIG. 14)", "setting": "Allergic Rhinitis", "result": "markedly ameliorates an increase in nasal airway resistance"}]}]}
